Assay results as given in patent US20110152362A1, “METHODS OF TREATING EPILEPTOGENESIS AND EPILEPSY” (priority 2004, published 2011).

What was measured:
[1] = system: rats subjected to Li-pilo induced SE; assay: Example 1: quantification of cell densities in hippocampus, thalamus and cortex after Li-pilo SE; format: in vivo, rat
Procedure: The effects of increasing doses of the Test Compound were studied on 3 groups of rats. The animals of the first group received 10 mg/kg of the test compound, i.p., 1 h after the onset of SE (pilo-TC10) while the animals of groups 2 and 3 received 30 and 60 mg/kg of the Test Compound (pilo-TC30 and pilo-TC60), respectively.
The control group received saline instead of pilocarpine and the Test Compound (saline-saline). […] Pilo-DZP received a second injection of 1 mg/kg DZP on the day of SE at about 10 h after the first one. Thereafter, Pilo-DZP and saline-saline rats received twice daily an equivalent volume of saline.
Quantification of cell densities was performed at 6 days after SE on 8 pilo-DZP, 8 pilo-TC10, 7 pilo-TC30, 7 pilo-TC60, and 6 saline-saline rats. […] Counts involved only cells larger than 10 μm, smaller ones being considered as glial cells.
For the comparison of the characteristics of SE in pilo-saline and pilo-test compound animals, a non-paired Student's t-test was used. The comparison between the number of rats seizing in both groups was performed by means of a Chi square test. For neuronal damage, statistical analysis between groups was performed using ANOVA followed by a Fisher's test for multiple comparisons using the Statview software (Fisher R A, 1946a, Statistical Methods for Research Workers (10th edition) Oliver & Boyd, Edinburgh; Fisher R A, 1946b, The Design of Experiments (4th edition) Oliver & Boyd, Edinburgh)

[2] = system: rats subjected to li-pilo SE; assay: Example 2: quantification of cell densities 14 days after li-pilo SE;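 further: Thionine-stained 20 µm brain sections, neurons with cell bodies above 10 µm counted, value is the mean of 12 fields per structure from three adjacent sections, both sides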
Procedure: All rats received lithium chloride (3 meq/kg, i.p., Sigma, St Louis, Mo., U.S.A.) and about 20 h later, all animals received also methylscopolamine bromide (1 mg/kg, s.c., Sigma) that was administered to limit the peripheral effects of the convulsant. […] The effects of increasing doses of TC were studied in 5 groups of rats. […] The control group received vehicle instead of pilocarpine and TC.
For neuronal counting, animals were deeply anesthetized with 1.8 g/kg pentobarbital (Dolethal®, Vetoquinol, Lure, France). Brains were then removed and frozen. Serial 20 μm slices were cut in a cryostat, air-dried during several days before thionine staining. […] The grid of counting was placed on a well defined area of the cerebral structure of interest and counting was carried out with a microscopic enlargement of 200- or 400-fold defined for each single cerebral structure. Cell counts were performed twice on each side of three adjacent sections for each region by a single observer unaware of the animal's treatment. The number of cells obtained in the 12 counted fields in each cerebral structure was averaged. This procedure was used to minimize the potential errors that could result from double counting leading to overestimation of cell numbers. […] Counts involved only neurons with cell bodies larger than 10 μm. Cells with small cell bodies were considered as glial cells and were not counted.
For neuronal damage and epileptogenesis, statistical analysis between groups was performed by means of a one-way analysis of variance followed by a post-hoc Dunnett or Fisher test using the Statistica software.

[3] = pilo-TC30 (TC 30 mg/kg), 14 days after li-pilo SE
[4] = pilo-TC60 (TC 60 mg/kg), 14 days after li-pilo SE

NC(=O)OC[C@@H](O)c1ccccc1Cl [TC]
protective effects at lowest dose tested in Example 1 ([1]; 10 mg/kg/day): minimal or no protective effects
protection in CA3b ([1]; 60 mg/kg): significantly neuroprotective
reduction of neuronal damage, lateral thalamic nucleus ([1]; 60 mg/kg dose): 65%
reduction of neuronal damage, mediodorsal thalamic nucleus ([1]; 60 mg/kg dose): 42%
neuroprotection compared to pilo-DZP rats, ventral entorhinal cortex layers III-IV ([1]; TC60 administration): 31%
reduction of neuronal damage recorded in pilo-DZP rats, piriform cortex layer II ([1]; TC60 treatment): 41%
reduction of neuronal damage recorded in pilo-DZP rats, piriform cortex layers III-IV ([1]; TC60 treatment): 44%
worsening of cell loss compared with pilo-DZP rats, dorsal entorhinal cortex layers III-IV ([1]; pilo-TC10 rats): 28 % more damage
worsening of cell loss compared with pilo-DZP rats, ventral entorhinal cortex layers III-IV ([1]; pilo-TC10 rats): 35 % more damage
cell loss, CA1 pyramidal layer ([1]; pilo-TC30 animals): 35%
cell loss, CA1 pyramidal layer ([1]; pilo-TC60 animals): 16%
cell loss in the hilus of dentate gyrus ([1]; pilo-test compound animals (10, 30, 60 mg/kg)): 69-72%
protection in the CA3a area ([1]; test compound 10, 30, 60 mg/kg): did not afford any protection
protective effects at lowest dose tested in Example 2 ([2]; 30 mg/kg): some measurable protective effects
neuronal drop out, layer II of the dorsal piriform cortex ([2]; TC 60 mg/kg, 14 days after SE): 25%
damage remaining, ventral entorhinal cortex layer II ([2]; TC 90 mg/kg, 14 days after SE): 4%
damage remaining, ventral entorhinal cortex layers III/IV ([2]; TC 90 mg/kg, 14 days after SE): 17%
neuronal density in piriform cortex, % of control levels ([2]; TC 120 mg/kg, 14 days after SE): 78-96 % of control levels
neurons surviving in entorhinal cortex, dorsal and ventral ([2]; TC 120 mg/kg, 14 days after SE): 85-94%
cell loss (drop out) in the hilus of dentate gyrus ([2]; TC30, 60 and 90 groups (range also covers DZP), 14 days after SE): 61-66%
cell loss, CA1 pyramidal cell layer ([2]; TC30, 60 or 90 rats, 14 days after SE): 36-47%
cell loss, CA1 pyramidal cell layer ([2]; TC120 group, 14 days after SE): 12%
neuronal loss in the hilus of dentate gyrus ([2]; TC120 group, 14 days after SE): 53%
neuronal drop out in thalamic nuclei ([2]; TC120 rats, 14 days after SE): 4-19%
number of neurons in all amygdala nuclei, % of the control level ([2]; highest dose, 120 mg/kg, 14 days after SE): 86-99 % of the control level
number of neuronal cell bodies: Amygdala Basolateral [2, 3]: 27.3 ± 4.9**°
number of neuronal cell bodies: Amygdala Medial, dorsal anterior [2, 3]: 46.8 ± 5.0
number of neuronal cell bodies: Amygdala Medial, ventral posterior [2, 3]: 22.3 ± 1.8
number of neuronal cell bodies: Cerebral cortex Entorhinal, layer II, dorsal [2, 3]: 23.4 ± 0.6
number of neuronal cell bodies: Cerebral cortex Entorhinal, layer II, ventral [2, 3]: 22.7 ± 0.9
number of neuronal cell bodies: Cerebral cortex Entorhinal, layer III/IV, dorsal [2, 3]: 22.3 ± 0.5
number of neuronal cell bodies: Cerebral cortex Entorhinal, layer III/IV, ventral [2, 3]: 13.2 ± 1.9
number of neuronal cell bodies: Cerebral cortex Piriform, layer II, dorsal [2, 3]: 15.7 ± 2.9
number of neuronal cell bodies: Cerebral cortex Piriform, layer II, ventral [2, 3]: 7.2 ± 3.8
number of neuronal cell bodies: Cerebral cortex Piriform, layer III [2, 3]: 1.8 ± 1.8
number of neuronal cell bodies: Hippocampus CA1 area [2, 3]: 39.3 ± 44**°°
number of neuronal cell bodies: Hippocampus CA3 area [2, 3]: 35.7 ± 1.8
number of neuronal cell bodies: Hippocampus Hilus [2, 3]: 33.0 ± 3.2
number of neuronal cell bodies: Thalamus Central medial [2, 3]: 75.6 ± 7.7
number of neuronal cell bodies: Thalamus Dorsolateral, medial, dorsal [2, 3]: 64.2 ± 9.3**°°
number of neuronal cell bodies: Thalamus Dorsolateral, ventral lateral [2, 3]: 8.8 ± 2.8
number of neuronal cell bodies: Thalamus Mediodorsal central [2, 3]: 26.9 ± 0.6
number of neuronal cell bodies: Thalamus Mediodorsal lateral [2, 3]: 20.5 ± 0.7
number of neuronal cell bodies: Thalamus Mediodorsal medial [2, 3]: 11.5 ± 2.5
number of neuronal cell bodies: Amygdala Basolateral [2, 4]: 27.8 ± 4.3**°°
number of neuronal cell bodies: Amygdala Medial, dorsal anterior [2, 4]: 58.4 ± 2.8**°
number of neuronal cell bodies: Amygdala Medial, ventral posterior [2, 4]: 26.2 ± 2.9
number of neuronal cell bodies: Cerebral cortex Entorhinal, layer II, dorsal [2, 4]: 23.9 ± 0.5
number of neuronal cell bodies: Cerebral cortex Entorhinal, layer II, ventral [2, 4]: 23.3 ± 0.8
number of neuronal cell bodies: Cerebral cortex Entorhinal, layer III/IV, dorsal [2, 4]: 23.2 ± 0.8
number of neuronal cell bodies: Cerebral cortex Entorhinal, layer III/IV, ventral [2, 4]: 16.5 ± 2.2
number of neuronal cell bodies: Cerebral cortex Piriform, layer II, dorsal [2, 4]: 27.5 ± 2.8**°°
number of neuronal cell bodies: Cerebral cortex Piriform, layer II, ventral [2, 4]: 13.7 ± 4.2
number of neuronal cell bodies: Cerebral cortex Piriform, layer III [2, 4]: 6.4 ± 2.3
